# Test results published in US4973675A, “Hybrid nitrosoureidoanthracyclines having antitumor activity” (University of Tennessee Research Center, priority 1989, dated 1990).
# “Also recorded” adds a separate entry of the source.
# Key:
# [1] = test system: murine L1210 leukemia cells; assay: Clonogenic assay with cultured murine L1210 leukemia cells, 1 h drug exposure (LD90); format: cell-based
# Method: (§1) Culture and bioassay conditions were as described in Cancer Chemotherapy Pharmacology 20:277 (1987) "Comparative Effects of Adriamycin and DNA-nonbinding Analogues on DNA, RNA, and Protein Synthesis in Vitro", Israel et al., except that cell counts were determined by hemocytometer rather than by automated cell counting.
# +Dose killing 90% of clonogens, 1hr. drug exposure.
# calf thymus DNA = assay: Interstrand cross-link formation in isolated calf thymus DNA, ethidium bromide fluorescence assay; format: biochemical
# Method: To further assess the alkylation potential of AD 312, the ability of this agent to form interstrand cross-links in isolated calf thymus DNA was examined using an ethidium bromide fluorescence assay. […] In one set of experiments, DNA was exposed briefly to AD 312 (30 minutes at 50° C.) before being reisolated by precipitation with ethanol. […] Such continuing reaction reflects the presence in the DNA of long-lived precursors of crosslinks similar to what has been found for the classical antitumor chloroethylnitrosoureas. […] It appears, therefore, that AD 312 induces DNA interstrand crosslinks via an initial adduct at O^6 -guanine.
# [2] = test system: plasmid PC15 supercoiled DNA; assay: DNA unwinding assay (interference with DNA topoisomerase I-mediated unwinding; drug-DNA intercalation); format: biochemical
# [3] = test system: human CEM leukemic lymphocytes; assay: Growth inhibition of human CEM leukemic lymphocyte suspension cultures, 48 h continuous drug exposure (ID50); format: cell-based
# Method: as §1
# white blood cells = assay: Hematotoxicity study in non-tumor-bearing animals, white blood cell count; format: in vivo, mice
# From the text: FIG. 3 is a graphic representation of white blood cell counts in mice following a single dose of 2-chloroethylnitrosoureidodaunorubicin.
# Clinically and in laboratory animals, anthracycline antibiotics and chloroethylnitrosourea alkylating agents currently used in medical oncology are known to be strongly myelosuppressive, with the effects of the alkylating agents on suppression of bone marrow activity being particularly profound and long-lasting.
# murine P388 leukemia = assay: In vivo antitumor activity vs. murine P388 (P388/S) leukemia; parameters: species or system murine (B6D2F1 males); settings: for Long-term survivors / Median increase in lifespan / Median survival / Net mean percent weight change, day 7 / Range of deaths (dying animals) / Range of death (dying animals): ip
# From the text: Initial studies utilized a multiple dose schedule, with drug administered once daily on days 1, 2, 3 and 4. […] The marked activity of AD 312 in this system has been confirmed in multiple separate experiments.
# Additional studies were done with AD 312 vs. murine P388/S under more demanding conditions of assay.
# ^a Summary results of 4 separate experiments. B6D2F1 males; 1 ×
# [4] = P388/S, 17.5 mg/kg/day, days 1-4
# [5] = P388/S, single dose 40.5 mg/kg day 1
# [6] = P388/S, single dose 40.5 mg/kg day 3
smiles,measurement,setting,value
"COc1cccc2c1C(=O)c1c(O)c3c(c(O)c1C2=O)C[C@@](O)(C(C)=O)C[C@@H]3O[C@H]1C[C@H](NC(=O)N(CCCl)N=O)[C@H](O)[C@H](C)O1 [AD 312, 2-chloroethylnitrosoureidodaunorubicin]",clonogenic cell kill,"[1]; L1210, 1 hour exposure",most potent of the six agents compared
same,IC90,"[1]; Mus musculus, L1210, 1 hr drug exposure, read-out: L1210 LD90 (dose killing 90% of clonogens)",260 nM
same,interstrand crosslink formation,"calf thymus DNA; 10 mM, 4 hours at 50° C.",appreciable interstrand crosslinks
same,continued crosslink formation after drug removal,"calf thymus DNA; 30 min exposure at 50° C., DNA reisolated, further incubation at 50° C.",crosslinks continued to form for several hours
same,effect of O^6-alkylguanine-DNA alkyltransferase on crosslink formation,calf thymus DNA; enzyme added to AD 312-treated DNA,can block the protracted second step in crosslink formation
same,relative strength of drug-DNA intercalation (arbitrary scale),"[2]; 0 = no intercalation, 9 = very strong intercalation",5
same,interference with topoisomerase I-mediated conversion of supercoiled DNA / intercalation,"[2]; 4 concentrations, 125-fold range","the ability of these compounds to intercalate, a prerequisite for topoisomerase II inhibition, is clearly established"
same,growth inhibitory activity,[3]; CEM in vitro,moderate to marked growth inhibitory activity; also recorded: somewhat less active
same,IC50,"[3]; Homo sapiens, Lymphocyte, CEM, 48 hr continuous drug exposure (Table 2), read-out: ID50 (the source's name)",90 nM
same,acute toxicity,white blood cells; dose 60.75 mg/kg,still not at an acute toxic level
same,recovery of white blood cell count,white blood cells; dose 60.75 mg/kg,rapid recovery again being achieved
same,reduction in white blood cell count,"white blood cells; dose 60.75 mg/kg, day 4",about 67%
same,day of white blood cell nadir,white blood cells; single dose 40.5 mg/kg,4 days
same,full recovery of white blood cell count,white blood cells; single dose 40.5 mg/kg,≤ 10 days
same,lowering of white blood cell count,white blood cells; single dose 40.5 mg/kg,only a modest lowering of the white blood cell count
same,white blood cell count nadir,"white blood cells; single dose 40.5 mg/kg, day 4, median 9×10^6 before drug",6×10^6 cells/ml
same,60-day survival,murine P388 leukemia; [4],100%
same,drug toxicity,murine P388 leukemia; [4],without evidence of drug toxicity
same,autopsy of surviving animals,"murine P388 leukemia; P388/S, gross examination at termination",no evidence of tumor or other abnormalities was observed on gross examination
same,60-day survival,murine P388 leukemia; [5],100%
same,antitumor effect,murine P388 leukemia; [5],significant antitumor effect
same,dose toxicity,murine P388 leukemia; [5],nontoxic
same,animals cured,murine P388 leukemia; [6],6 of 7
same,day of the lone death,murine P388 leukemia; [6],45 days
same,Long-term survivors,murine P388 leukemia; 0.5 mg/kg qd 1-4,0/7
same,Median increase in lifespan,murine P388 leukemia; 0.5 mg/kg qd 1-4,+10%
same,Median survival,murine P388 leukemia; 0.5 mg/kg qd 1-4,11 days
same,"Net mean percent weight change, day 7",murine P388 leukemia; 0.5 mg/kg qd 1-4,+13%
same,Range of deaths (dying animals),murine P388 leukemia; 0.5 mg/kg qd 1-4,10 to 11 days
same,Long-term survivors,murine P388 leukemia; 1.0 mg/kg qd 1-4,0/7
same,Median increase in lifespan,murine P388 leukemia; 1.0 mg/kg qd 1-4,+20%
same,Median survival,murine P388 leukemia; 1.0 mg/kg qd 1-4,12 days
same,"Net mean percent weight change, day 7",murine P388 leukemia; 1.0 mg/kg qd 1-4,+6%
same,Range of deaths (dying animals),murine P388 leukemia; 1.0 mg/kg qd 1-4,11 to 18 days
same,Long-term survivors,murine P388 leukemia; 2.0 mg/kg qd 1-4 (Table 4),0/7
same,Median increase in lifespan,murine P388 leukemia; 2.0 mg/kg qd 1-4 (Table 4),+30%
same,Median survival,murine P388 leukemia; 2.0 mg/kg qd 1-4 (Table 4),13 days
same,"Net mean percent weight change, day 7",murine P388 leukemia; 2.0 mg/kg qd 1-4 (Table 4),+7%
same,Range of deaths (dying animals),murine P388 leukemia; 2.0 mg/kg qd 1-4 (Table 4),12 to 14 days
same,Long-term survivors,murine P388 leukemia; 2.7 mg/kg qd 1-4,0/7
same,Median increase in lifespan,murine P388 leukemia; 2.7 mg/kg qd 1-4,+60%
same,Median survival,murine P388 leukemia; 2.7 mg/kg qd 1-4,16 days
same,"Net mean percent weight change, day 7",murine P388 leukemia; 2.7 mg/kg qd 1-4,+4%
same,Range of deaths (dying animals),murine P388 leukemia; 2.7 mg/kg qd 1-4,16 to 17 days
same,Long-term survivors,murine P388 leukemia; 4.0 mg/kg qd 1-4 (Table 4),0/7
same,Median increase in lifespan,murine P388 leukemia; 4.0 mg/kg qd 1-4 (Table 4),+75%
same,Median survival,murine P388 leukemia; 4.0 mg/kg qd 1-4 (Table 4),17.5 days
same,"Net mean percent weight change, day 7",murine P388 leukemia; 4.0 mg/kg qd 1-4 (Table 4),+2%
same,Range of deaths (dying animals),murine P388 leukemia; 4.0 mg/kg qd 1-4 (Table 4),15 to 20 days
same,Long-term survivors,murine P388 leukemia; 6.0 mg/kg qd 1-4,0/7
same,Median increase in lifespan,murine P388 leukemia; 6.0 mg/kg qd 1-4,+110%
same,Median survival,murine P388 leukemia; 6.0 mg/kg qd 1-4,21 days
same,"Net mean percent weight change, day 7",murine P388 leukemia; 6.0 mg/kg qd 1-4,+4%
same,Range of deaths (dying animals),murine P388 leukemia; 6.0 mg/kg qd 1-4,19 to 24 days
same,Median increase in lifespan,murine P388 leukemia; 9.0 mg/kg qd 1-4,+250%
same,Median survival,murine P388 leukemia; 9.0 mg/kg qd 1-4,35 days
same,"Net mean percent weight change, day 7",murine P388 leukemia; 9.0 mg/kg qd 1-4,-2%
same,Range of deaths (dying animals),murine P388 leukemia; 9.0 mg/kg qd 1-4,24 to 35 days
same,Long-term survivors,"murine P388 leukemia; 9.0 mg/kg qd 1-4, sacrifice day 43",3/7
same,Median increase in lifespan,murine P388 leukemia; 10.0 mg/kg qd 1-4,> +500%
same,"Net mean percent weight change, day 7",murine P388 leukemia; 10.0 mg/kg qd 1-4,-1%
same,Range of deaths (dying animals),murine P388 leukemia; 10.0 mg/kg qd 1-4,38 days
same,Long-term survivors,"murine P388 leukemia; 10.0 mg/kg qd 1-4, sacrifice day 60",5/7
same,Median increase in lifespan,murine P388 leukemia; 11.0 mg/kg qd 1-4,> +500%
same,"Net mean percent weight change, day 7",murine P388 leukemia; 11.0 mg/kg qd 1-4,+1%
same,Range of deaths (dying animals),murine P388 leukemia; 11.0 mg/kg qd 1-4,28 days
same,Long-term survivors,"murine P388 leukemia; 11.0 mg/kg qd 1-4, sacrifice day 60",5/6
same,Long-term survivors,murine P388 leukemia; 12.0 mg/kg day 1 only,0/7
same,Median increase in lifespan,murine P388 leukemia; 12.0 mg/kg day 1 only,+100%
same,Median survival,murine P388 leukemia; 12.0 mg/kg day 1 only,20 days
same,"Net mean percent weight change, day 7",murine P388 leukemia; 12.0 mg/kg day 1 only,+6%
same,Range of death (dying animals),murine P388 leukemia; 12.0 mg/kg day 1 only,16 to 22 days
same,Median increase in lifespan,murine P388 leukemia; 12.5 mg/kg qd 1-4,> +540%
same,Range of deaths (dying animals),murine P388 leukemia; 12.5 mg/kg qd 1-4,35 to 40 days
same,Long-term survivors,"murine P388 leukemia; 12.5 mg/kg qd 1-4, sacrifice day 64",4/7
same,Median increase in lifespan,murine P388 leukemia; 15.0 mg/kg qd 1-4,> +540%
same,"Net mean percent weight change, day 7",murine P388 leukemia; 15.0 mg/kg qd 1-4,-1%
same,Range of deaths (dying animals),murine P388 leukemia; 15.0 mg/kg qd 1-4,32 to 39 days
same,Long-term survivors,"murine P388 leukemia; 15.0 mg/kg qd 1-4, sacrifice day 64",4/7
same,Median increase in lifespan,murine P388 leukemia; 17.5 mg/kg qd 1-4,> +540%
same,"Net mean percent weight change, day 7",murine P388 leukemia; 17.5 mg/kg qd 1-4,-1%
same,Long-term survivors,"murine P388 leukemia; 17.5 mg/kg qd 1-4, sacrifice day 64",6/6
same,Median increase in lifespan,murine P388 leukemia; 18.0 mg/kg day 1 only,+210%
same,Median survival,murine P388 leukemia; 18.0 mg/kg day 1 only,31 days
same,"Net mean percent weight change, day 7",murine P388 leukemia; 18.0 mg/kg day 1 only,+7%
same,Range of death (dying animals),murine P388 leukemia; 18.0 mg/kg day 1 only,18 to 35 days
same,Long-term survivors,"murine P388 leukemia; 18.0 mg/kg day 1 only, sacrifice day 60",1/7
same,Median increase in lifespan,murine P388 leukemia; 27.0 mg/kg day 1 only,+230%
same,Median survival,murine P388 leukemia; 27.0 mg/kg day 1 only,33 days
same,"Net mean percent weight change, day 7",murine P388 leukemia; 27.0 mg/kg day 1 only,+9%
same,Range of death (dying animals),murine P388 leukemia; 27.0 mg/kg day 1 only,23 to 33 days
same,Long-term survivors,"murine P388 leukemia; 27.0 mg/kg day 1 only, sacrifice day 60",3/7
same,Long-term survivors,murine P388 leukemia; 27.0 mg/kg day 3 only,0/7
same,Median increase in lifespan,murine P388 leukemia; 27.0 mg/kg day 3 only,+210%
same,Median survival,murine P388 leukemia; 27.0 mg/kg day 3 only,31 days
same,"Net mean percent weight change, day 7",murine P388 leukemia; 27.0 mg/kg day 3 only,+17%
same,Range of death (dying animals),murine P388 leukemia; 27.0 mg/kg day 3 only,12 to 49 days
same,Median increase in lifespan,murine P388 leukemia; 40.5 mg/kg day 1 only,> +500%
same,"Net mean percent weight change, day 7",murine P388 leukemia; 40.5 mg/kg day 1 only,-3%
same,Long-term survivors,"murine P388 leukemia; 40.5 mg/kg day 1 only, sacrifice day 60",7/7
same,Median increase in lifespan,murine P388 leukemia; 40.5 mg/kg day 3 only,> +500%
same,"Net mean percent weight change, day 7",murine P388 leukemia; 40.5 mg/kg day 3 only,-4%
same,Range of death (dying animals),murine P388 leukemia; 40.5 mg/kg day 3 only,45 days
same,Long-term survivors,"murine P388 leukemia; 40.5 mg/kg day 3 only, sacrifice day 60",6/7
same,toxicity / myelosuppression at curative doses,murine P388 leukemia; tumor-bearing animals,No such effect appears to be present in tumor-bearing animals; also recorded: lack of toxicity at the curative dose levels
